Assay: wn = mass fraction of the nth substance listed
Conditions: Liquid; for mass density: Vibrating tube method; for viscosity: Falling or rolling sphere viscometry

OCCNCCO [diethanolamine] + O
Conditions	mass density, w1 = 0.0993 [kg/m3]	mass density, w1 = 0.2 [kg/m3]	mass density, w1 = 0.3002 [kg/m3]	mass density, w1 = 0.3997 [kg/m3]	viscosity, w1 = 0.0993 [mPa·s]	viscosity, w1 = 0.2 [mPa·s]	viscosity, w1 = 0.3002 [mPa·s]	viscosity, w1 = 0.3997 [mPa·s]
353.15 K, 60000 kPa	–	–	1026.4	1036.7	–	–	–	–
353.15 K, 70000 kPa	1010	1019.8	1029.9	1040.2	–	–	–	–
353.15 K, 80000 kPa	1013.7	1023.4	1033.4	1043.6	0.4886	0.6588	0.9309	1.371
353.15 K, 90000 kPa	1017.3	1026.9	1036.8	1047	–	–	–	–
353.15 K, 100000 kPa	1020.9	1030.4	1040.1	1050.4	0.4971	0.6731	0.9514	1.409
353.15 K, 110000 kPa	1024.4	1033.8	1043.5	1053.6	–	–	–	–
353.15 K, 120000 kPa	1027.8	1037.1	1046.8	1056.8	–	–	–	–
353.15 K, 130000 kPa	1031.1	1040.5	1050	1060	–	–	–	–
353.15 K, 140000 kPa	1034.4	1043.6	1053.1	1063	–	–	–	–
373.15 K, 100 kPa	968.1	978.3	988.7	999.2	–	–	–	–
373.15 K, 500 kPa	968.3	978.6	988.9	999.4	–	–	–	–
373.15 K, 1000 kPa	968.6	978.8	989.2	999.6	–	–	–	–
373.15 K, 2000 kPa	969.1	979.3	989.6	1000.1	–	–	–	–
373.15 K, 5000 kPa	970.4	980.6	990.9	1001.4	0.3586	0.4622	0.6145	0.8545
373.15 K, 10000 kPa	972.7	982.8	993.2	1003.6	0.3611	0.4646	0.6194	0.863
373.15 K, 15000 kPa	974.9	985	995.3	1005.7	0.3635	0.467	0.6247	0.8727
373.15 K, 20000 kPa	977.1	987.2	997.4	1007.8	0.3652	0.4698	0.6304	0.8808
373.15 K, 25000 kPa	–	–	–	–	0.3672	0.4729	0.6353	0.889

From the NIST ThermoML archive (doi:10.1016/j.jct.2017.05.001)
